Test results published in patent US8735439B2, “Chlorin e6-folic acid conjugate, preparation method thereof, and a pharmaceutical composition for the treatment of cancer comprising the same” (Diatech Korea Co., Ltd., priority 2009, dated 2014).

Assay: Spectral and fluorescent parameters of chlorin e6 conjugate in different systems
Format: physicochemical
Description: Pigment-protein complexes have been formed by adding to the solution of human serum albumin (HAS) a specific amount of photosensitizer dissolved in the same buffer. […] Similarly, the photosensitizer was included in detergent micelle (Triton X-100, C=10^−3M).
The electronic absorption spectra of the subject solution were recorded on Specord UV-Vis. The fluorescence spectra and value of degree of fluorescence polarization (P) were recorded on an automatic spectrofluorimeter (Institute of Physics). Life time of photosensitizer fluorescence (ts) was estimated using an impulse fluorometer operating in the mode of photons counting.
The main feature of the absorption spectrum is intensive (ε=4.8 10^4 M^−1 cm^−1) Qx (0-0) band at 660 nm, which falls into the spectral window of the majority of biological tissues.
Complex formation of chlorin e6 conjugate, and HSA, liposomes or detergent micelles leads to bathochromic shift in the absorption and fluorescence spectra of pigment. However, an increase in fluorescence photoresponse (B) was observed, which correlates with the growth of life time (ts) without changing of the Kravec integral value.

[γ-(6-aminohexyl)folic acid]-chlorin e6 [chlorin e6 conjugate]
l^00abs (Dimethyl sulfoxide): 661 Nm | l^00fl (Dimethyl sulfoxide): 672 nm | tS (life time of fluorescence) (Dimethyl sulfoxide): 4.6 ns | B (fluorescence photoresponse) (H2O, pH 8.1): 0.16 | l^00abs (H2O, pH 8.1): 657 Nm | l^00fl (H2O, pH 8.1): 664 nm | tS (life time of fluorescence) (H2O, pH 8.1): 4.3 ns | B (fluorescence photoresponse) (HSA, pH 8.1): 0.18 | l^00abs (HSA, pH 8.1): 664 Nm | l^00fl (HSA, pH 8.1): 669 nm | tS (life time of fluorescence) (HSA, pH 8.1): 5.2 ns | B (fluorescence photoresponse) (Liposomes, pH 8.1): 0.21 | l^00abs (Liposomes, pH 8.1): 665 Nm | l^00fl (Liposomes, pH 8.1): 670 nm | tS (life time of fluorescence) (Liposomes, pH 8.1): 5.4 ns | l^00abs (Methanol): 662 Nm | l^00fl (Methanol): 667 nm | tS (life time of fluorescence) (Methanol): 4.8 ns | B (fluorescence photoresponse) (Pyridine): 0.18 | l^00abs (Pyridine): 666 Nm | l^00fl (Pyridine): 673 nm | tS (life time of fluorescence) (Pyridine): 5.0 ns | l^00abs (Tetrahydrofuran): 667 Nm | tS (life time of fluorescence) (Tetrahydrofuran): 5.0 ns | B (fluorescence photoresponse) (Triton X-100, pH 8.1): 0.19 | l^00abs (Triton X-100, pH 8.1): 665 Nm | l^00fl (Triton X-100, pH 8.1): 670 nm | tS (life time of fluorescence) (Triton X-100, pH 8.1): 5.7 ns | P (degree of fluorescence polarization) (in liposomes): 0.13
